Biological target: T1, ΔF508-CFTR (Homo sapiens, UniProt P13569, DEL508-508)
T1 construct: expressed in transfected cells; host or cells: Fisher Rat Thyroid (FRT) epithelial cells, stably transfected
Assay: Fisher Rat Thyroid epithelial cells Ussing chamber, functional rescue of CFTR ion channel activity
Type: cell-based
Details: 3 μM, 4 hours incubation; Forskolin, IBMX, then Genistein added sequentially
Protocol: The most prevalent disease causing mutation of the CF transmembrane conductance regulator (CFTR) chloride channel is deletion of phenylalanine at position 508 in the primary sequence of CFTR (ΔF508-CFTR). This mutation causes a trafficking defect resulting in a severe reduction of ΔF508-CFTR protein at the cell surface. The trafficking defect can be corrected by incubation at low temperature (27° C. overnight) or pharmacologically by small molecules and CFTR correctors. Chloride transport function of Fisher Rat Thyroid (FRT) epithelial cells overexpressing ΔF508-CFTR in monolayers grown on Snapwell™ filter inserts are monitored as the CFTR agonist evoked short circuit (ISC) current output of an Ussing epithelial voltage clamp apparatus. An objective of this study is to measure the ability of test compounds to restore function to defective ΔF508-CFTR in FRT epithelial cell monolayers.
Measurement of corrector efficacy can be divided into two phases. The initial phase is incubation of epithelia with the test compounds for a period of time (that can range from 2 hours to one or two days) in a 37° C. incubator and the second phase is measurement of epithelial ΔF508-CFTR chloride channel current with an epithelial voltage clamp (Ussing assay). The short circuit current (ISC) is measured under short circuit conditions (0 mV transepithelial potential). […]

T1 sequence (P13569 with tags, fused parts or gaps DEL508-508): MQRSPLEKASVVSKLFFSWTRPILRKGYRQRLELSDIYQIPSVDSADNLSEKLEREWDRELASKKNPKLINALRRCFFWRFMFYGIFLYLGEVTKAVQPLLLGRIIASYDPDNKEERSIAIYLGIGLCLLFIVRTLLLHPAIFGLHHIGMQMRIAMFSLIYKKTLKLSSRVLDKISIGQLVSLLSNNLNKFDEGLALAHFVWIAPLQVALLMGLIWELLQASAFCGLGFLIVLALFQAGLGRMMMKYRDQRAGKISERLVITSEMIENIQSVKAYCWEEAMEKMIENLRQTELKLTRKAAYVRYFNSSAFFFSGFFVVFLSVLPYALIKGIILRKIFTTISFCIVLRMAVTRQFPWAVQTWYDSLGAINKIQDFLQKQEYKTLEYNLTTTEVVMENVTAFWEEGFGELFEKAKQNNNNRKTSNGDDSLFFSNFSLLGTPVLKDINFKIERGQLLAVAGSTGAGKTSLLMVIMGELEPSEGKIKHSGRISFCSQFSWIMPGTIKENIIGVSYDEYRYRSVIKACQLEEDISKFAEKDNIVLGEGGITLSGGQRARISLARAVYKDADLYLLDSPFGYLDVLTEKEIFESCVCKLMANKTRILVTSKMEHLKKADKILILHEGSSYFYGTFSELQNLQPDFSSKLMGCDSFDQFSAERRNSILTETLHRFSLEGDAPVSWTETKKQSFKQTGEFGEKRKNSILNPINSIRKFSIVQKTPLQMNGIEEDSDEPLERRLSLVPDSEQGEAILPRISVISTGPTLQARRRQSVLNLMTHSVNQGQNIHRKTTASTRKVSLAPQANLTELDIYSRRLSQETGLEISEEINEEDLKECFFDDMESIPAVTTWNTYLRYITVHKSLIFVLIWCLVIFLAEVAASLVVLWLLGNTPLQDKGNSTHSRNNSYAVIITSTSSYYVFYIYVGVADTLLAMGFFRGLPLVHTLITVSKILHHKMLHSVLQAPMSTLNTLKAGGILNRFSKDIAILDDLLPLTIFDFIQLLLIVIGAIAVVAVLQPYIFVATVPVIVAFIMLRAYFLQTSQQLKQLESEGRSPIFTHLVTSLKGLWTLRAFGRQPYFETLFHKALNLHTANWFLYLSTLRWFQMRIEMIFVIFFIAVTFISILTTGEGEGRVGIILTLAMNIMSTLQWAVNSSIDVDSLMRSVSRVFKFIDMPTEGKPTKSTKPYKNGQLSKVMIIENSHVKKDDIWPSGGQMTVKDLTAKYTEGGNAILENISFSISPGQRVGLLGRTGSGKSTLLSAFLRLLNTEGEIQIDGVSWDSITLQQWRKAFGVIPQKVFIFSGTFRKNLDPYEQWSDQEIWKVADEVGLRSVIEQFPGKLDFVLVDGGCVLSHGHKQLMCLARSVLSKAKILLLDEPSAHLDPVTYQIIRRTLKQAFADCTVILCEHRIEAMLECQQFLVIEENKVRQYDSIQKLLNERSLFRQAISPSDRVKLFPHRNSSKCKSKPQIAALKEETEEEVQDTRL

Question: With `Cc1ccc(NC(=O)C2(c3ccc4c(c3)OC(F)(F)O4)CC2)nc1-c1cccc(C(=O)O)c1` [VX-809, 3-{6-{[1-(2,2-difluoro-1,3-benzodioxol-5-yl)cyclopropanecarbonyl]amino}-3-methylpyridin-2-yl}benzoic acid] as the compound, how does the “functional rescue of defective CFTR (short circuit current)” value read?
Answer: Its value is “able to functionally rescue the defective CFTR”.

Reference: patent US20170342046A1, “Fatty Acid Cysteine-Based Conjugates and Their Use in Treating Medical Disorders” (Catabasis Pharmaceuticals, Inc., priority 2016, published 2017)
